# Data: US8853274B1, “Compositions and methods for targeting glioblastomas cells” (Vanderbilt University, priority 2011, dated 2014)
# Columns and labels:
# Type in all cases: cell-based, human
# [1] = tested on: T4302 CD133+ cells; assay: Cell growth / viability on day 5 (CellTiter-Glo); conditions: 100 nM; with or without 3 Gy radiation
# Procedure: (§1) (A, B) T4302 CD133+ cells were treated with 100 nM RO4929097 (GSI) and/or 100 nM tipifarnib (FTI) for 4 hours prior to 3 Gy radiation. (A) Cell growth on day 5 and (B) caspase 3/7 activation on day 3 were determined as described in FIG. 4. #: p<0.001 by one-way ANOVA, combo vs. single agents. (C) The effects of GSIs and FTI against growth of T4302 CD133− cells were determined as described in panel A. (D, E) T4302 CD133+ cells were treated with GSI, FTI, or a 1:1 mixture at different concentrations (ranging from 3000 nM to ˜0.5 nM, 1:3 dilution)±3 Gy radiation. Cell viability was determined at 5 days after treatment in comparison to vehicle-treated groups. […] (F) T4302 CD 133+ cells were treated by GSI±FTI with a 2-fold dilution. Neurospheres were countered on day 10, and normalized to the vehicle-treated group.
# GSC sensitivity to drug(s) was primarily measured as inhibition of cell viability (survival). Cells were treated with drugs alone or in combination±3-Gy radiation at indicated concentrations. Cell viability is determined by CellTiter-Glo kit (Promega) after 5-day incubation. IC50 values are calculated by the GraphPad Prism5 software.
# [2] = tested on: Akt; assay: Immunoblot of Akt phosphorylation in T4302 CD133+ cells; conditions: 200 nM, ±radiation, 2 days
# Procedure: (A) T4302 CD133+ cells were treated with 200 nM RO4929097 (GSI), and irradiated 4 hours later. Cells were cultured for two days and lysed for immunoblotting. (B) T4302 CD133+ cells were treated with 200 nM GSI or FTI±radiation. Cells were lysed 2 days after treatment. (C) T4302 CD133+ cells were treated with 200 nM GSI±FTI for 24 hours, and left under normoxia or in 2% O2 for 16 hours before being lysed for immunoblotting.
# [3] = tested on: Ras; assay: Active Ras pull-down assay in T4302 CD133+ cells; conditions: 200 nM; after radiation exposure
# Procedure: (A) T4302 CD133+ cells were infected with NICD2-lentivirus and treated with 2 μM DAPT±3 Gy radiation. Cells were collected at 24 or 48 hours after treatment. Protein levels of phospho-s473 Akt, total Akt and actin were blotted. (B) Control CD133+ cells or NICD2-expressing cells were pre-treated with 10 μM PI3K inhibitor (LY294002), or 50 μM Akt inhibitor (SH-6) for 4 hours prior to radiation. Relative caspase 3/7 activity was determined at 48 hours after radiation as described in FIG. 3C. (C) T4302 CD133+ cells were treated with 200 nM RO4929097 (GSI)±3 Gy. Active Ras levels were determined by a Ras Pull Down Assay kit using a pan-Ras antibody (Pierce). (D, E) T4302 cells were infected with H-Ras V12-lentivirus. Cells were treated with 200 nM RO4929097 (GSI)±3 Gy. Growth of cells was determined at day 5 after treatment (CellTiter-Glo assay, Promega). Relative caspase 3/7 activity was determined at 48 hours after treatment. […] Equal amounts of protein were resolved by SDS-PAGE and analyzed by immunoblotting with indicated antibodies. *: p<0.05 by Student's t-test.
# Potential mechanisms that mediate Notch-dependent Akt activation were examined next. […] Using an active Ras pull-down assay kit (Pierce), the activation status of Ras signaling can be determined as the amount of Ras-GTP co-purified with a GST-tagged Ras-binding domain of c-Raf. […]
# [4] = tested on: T4302 CD133+ cells expressing RhoB shRNA; assay: Growth, caspase and Akt phosphorylation in RhoB shRNA cells; conditions: 100 nM
# Procedure: (A) T4302 CD133+ cells were infected with lentivirus directing expression of a non-targeting shRNA or two RhoB specific shRNA. Cells were lysed for immunoblotting 3 days after infection. (B, C) Two days after infection, cells were selected with puromycin for two days, and plated in 96-well plates for growth curve assays. Cell growth was measured on days 1, 3 and 5 after plating, and normalized to the corresponding readout on day 1. (D-F) After lentiviral infection and puromycin selection as described above, T4302 CD133+ cells were treated with 100 nM GSI, FTI, ±3 Gy radiation and plated for subsequent experiments. (D) Relative growth on day 5, (E) caspase activation on day 3, and (F) protein levels on day 1 after treatment were determined as described in FIG. 4. *: p<0.001 by Student's t-test in comparison to the corresponding control groups.
# [5] = tested on: T4302 CD133− cells; assay: Growth / survival of non-stem GBM cells; conditions: day 5
# Procedure: as §1
# Tumor cells are enzymatically dissociated from freshly collected subcutaneous xenograft tumors and cultured overnight before sorting. The CD133− and CD133+ fractions are separated either by magnetic sorting using the CD133 Microbead kit (Miltenyi Biotech), or labeled with APC-conjugated CD133 antibody (Miltenyi Biotech) and sorted by flow cytometry. CD133+ cells are maintained in neurobasal media supplemented with 2% B-27, 20 ng/ml EGF, and 20 ng/ml bFGF. […]
smiles,measurement,setting,value
CC(C)(C(=O)NCC(F)(F)C(F)(F)F)C(=O)N[C@@H]1C(=O)Nc2ccccc2-c2ccccc21 [RO4929097],"degree of growth inhibition after 5-day treatment, in words",[1],weaker growth inhibition
same,Akt activity (phosphorylation at serine 473 and threonine 308),[2],stronger Akt inhibition in irradiated cells than in unirradiated cells
same,active Ras levels,[3],decreased active Ras levels
same,Akt phosphorylation in RhoB knockdown cells compared with control cells,[4]; day 1,greater reduction of Akt phosphorylation
same,"sensitivity of RhoB shRNA cells (growth day 5, caspase day 3)",[4]; ±3 Gy,highly sensitive
same,effect on growth of CD133− non-stem GBM cells,[5],largely insensitive
